Experimental data: paper PMC6581923 (Journal of Molecular Neuroscience, 2018)

Tests used:
PAC1-R = biological target: T1, PAC1-R (Homo sapiens, UniProt P41586); assay: cAMP accumulation assay in PAC1-CHO cells; type: cell-based; details: DMEM, 37 °C, 5-10 min, enzyme immunoassay for cAMP, % of maximal cAMP level with PACAP27, means ± SEM of four experiments, read-out: EC50 (activation of PAC1-R, cAMP accumulation)
T1 construct: expressed in transfected cells; host or cells: PAC1-CHO cells (CHO cells expressing PAC1-R); That they are transfected is inferred from the cell line's name
T1 sequence (P41586 21-468): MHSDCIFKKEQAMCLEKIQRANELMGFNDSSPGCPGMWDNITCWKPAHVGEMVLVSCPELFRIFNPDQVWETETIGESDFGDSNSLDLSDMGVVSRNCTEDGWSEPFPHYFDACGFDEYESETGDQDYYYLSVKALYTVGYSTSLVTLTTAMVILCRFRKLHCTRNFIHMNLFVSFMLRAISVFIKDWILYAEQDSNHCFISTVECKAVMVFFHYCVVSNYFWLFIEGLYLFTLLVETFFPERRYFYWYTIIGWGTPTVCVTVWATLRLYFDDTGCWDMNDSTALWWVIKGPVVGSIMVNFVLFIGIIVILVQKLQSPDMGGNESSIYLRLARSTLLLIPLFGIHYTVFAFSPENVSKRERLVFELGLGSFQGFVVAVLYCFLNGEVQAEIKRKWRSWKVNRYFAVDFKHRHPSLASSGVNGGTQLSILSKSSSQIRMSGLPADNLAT
Experimental: PAC1-CHO cells cultured in Dulbecco’s Modified Eagle’s Medium (DMEM) at 37 °C were scraped off the surface with rubber policeman, washed twice with PBS and the density of the cells was adjusted to 2 × 10^6 /mL. Peptides were added to 500 uL cells suspension with the corresponding varying working concentrations of the detected factor. After incubation at 37 °C for 5-10 min cells were harvested and the lysates were subjected to cAMP quantification using the enzyme immunoassay kit for cAMP (Biyuntian, Shanghai, China), following the manufacturer’s instructions. Protein concentration of each sample was determined using BCA assay, and the cAMP level of each sample was calculated following the formula: cAMP level (pmol/mg protein) = cAMP concentration (pmol/mL)/protein concentration (mg/mL). The cAMP level in each sample was plotted as the percentage (%) of the maximal cAMP level in cells treated with PACAP27 versus the logarithmic value of the peptide concentrations. All experiments were run with at least four parallel samples and were repeated three times.
The data are means ± SEM of four experiments

[1] = ref Steingart et al. [2000]; cited from earlier work
Description: VIP is an important neuromodulator along the visual transmission pathways, not only in the retina, but all the way to the cortex where it influences visual information processing (Galletti and Fattori [2018]; Wilson and Glickfeld [2014]). Regarding retinoprotection, a few studies i ...

For CC[C@H](C)[C@H](NC(=O)[C@H](CO)NC(=O)[C@H](CC(N)=O)NC(=O)[C@H](CC(C)C)NC(=O)[C@H](Cc1ccc(O)cc1)NC(=O)[C@H](CCCCN)NC(=O)[C@H](CCCCN)NC(=O)[C@@H](NC(=O)[C@H](C)NC(=O)[C@H](CCSC)NC(=O)[C@H](CCC(N)=O)NC(=O)[C@H](CCCCN)NC(=O)[C@H](CCCN=C(N)N)NC(=O)[C@H](CC(C)C)NC(=O)[C@H](CCCN=C(N)N)NC(=O)[C@@H](NC(=O)[C@H](Cc1ccc(O)cc1)NC(=O)[C@H](CC(N)=O)NC(=O)[C@H](CC(=O)O)NC(=O)[C@@H](NC(=O)[C@H](Cc1ccccc1)NC(=O)[C@@H](NC(=O)[C@H](C)NC(=O)[C@H](CC(=O)O)NC(=O)[C@H](CO)NC(=O)[C@@H](N)Cc1c[nH]cn1)C(C)C)[C@@H](C)O)[C@@H](C)O)C(C)C)C(=O)N[C@@H](CC(C)C)C(=O)N[C@@H](CC(N)=O)C(N)=O [VIP, vasoactive intestinal peptide, reference compound], which EC50 (PAC1-R) is on record?
Its EC50 is 30.1 ± 4.1 nM.

B1: activity-dependent neurotrophic protein (protein, UniProt Q9H2P0 1-1102, looked up)
Activity-dependent …: MFQLPVNNLGSLRKARKTVKKILSDIGLEYCKEHIEDFKQFEPNDFYLKNTTWEDVGLWDPSLTKNQDYRTKPFCCSACPFSSKFFSAYKSHFRNVHSEDFENRILLNCPYCTFNADKKTLETHIKIFHAPNASAPSSSLSTFKDKNKNDGLKPKQADSVEQAVYYCKKCTYRDPLYEIVRKHIYREHFQHVAAPYIAKAGEKSLNGAVPLGSNAREESSIHCKRCLFMPKSYEALVQHVIEDHERIGYQVTAMIGHTNVVVPRSKPLMLIAPKPQDKKSMGLPPRIGSLASGNVRSLPSQQMVNRLSIPKPNLNSTGVNMMSSVHLQQNNYGVKSVGQGYSVGQSMRLGLGGNAPVSIPQQSQSVKQLLPSGNGRSYGLGSEQRSQAPARYSLQSANASSLSSGQLKSPSLSQSQASRVLGQSSSKPAAAATGPPPGNTSSTQKWKICTICNELFPENVYSVHFEKEHKAEKVPAVANYIMKIHNFTSKCLYCNRYLPTDTLLNHMLIHGLSCPYCRSTFNDVEKMAAHMRMVHIDEEMGPKTDSTLSFDLTLQQGSHTNIHLLVTTYNLRDAPAESVAYHAQNNPPVPPKPQPKVQEKADIPVKSSPQAAVPYKKDVGKTLCPLCFSILKGPISDALAHHLRERHQVIQTVHPVEKKLTYKCIHCLGVYTSNMTASTITLHLVHCRGVGKTQNGQDKTNAPSRLNQSPSLAPVKRTYEQMEFPLLKKRKLDDDSDSPSFFEEKPEEPVVLALDPKGHEDDSYEARKSFLTKYFNKQPYPTRREIEKLAASLWLWKSDIASHFSNKRKKCVRDCEKYKPGVLLGFNMKELNKVKHEMDFDAEWLFENHDEKDSRVNASKTADKKLNLGKEDDSSSDSFENLEEESNESGSPFDPVFEVEPKISNDNPEEHVLKVIPEDASESEEKLDQKEDGSKYETIHLTEEPTKLMHNASDSEVDQDDVVEWKDGASPSESGPGSQQVSDFEDNTCEMKPGTWSDESSQSEDARSSKPAAKKKATMQGDREQLKWKNSSYGKVEGFWSKDQSQWKNASENDERLSNPQIEWQNSTIDSEDGEQFDNMTDGVAEPMHGSLAGVKLSSQQA
Which “Protection against a variety of stress factors” value [1] does the source give for B1 here?
Its value is “strong protection against a variety of stress factors”.
